Laboratory results published in US20150017673A1, “COMPOSITIONS AND METHODS FOR DRUG-SENSITIZATION OR INHIBITION OF A CANCER CELL” (priority 2012, published 2015).
Read-outs that look alike come from different tables or passages of the source.

Legend:
lymphoma cell line G3 = experiment: Cell growth assay (resazurin fluorescence) on CHOP-resistant G3 NHL cells; format: cell-based, human; conditions: for Magnitude of potentiation in combination with doxorubicin: G3, lymphoma B cells
Description: (§1) Compositions were tested on CHOP-resistant G3 NHL cells that had been cultivated in RPMI medium for five days. Prior to assay, the cells were counted by haemocytometer and cell concentration standardized to 625,000 cells/ml. Test drugs were solubilized in 100% DMSO and then diluted to final assay concentration with 0.1M phosphate buffered saline (PBS) and a final DMSO concentration of 0.5%. Cells were added to assay plates containing the test drugs (rifabutin+148 ng/ml, 74 ng/ml, 37 ng/ml, or 0 ng/ml doxorubicin) and allowed to incubate for 96 hours at 37° C. and 5% CO2. The metabolic dye rezasurin was added to the wells of the assay plate at a final concentration of 20 μg/ml and the plates were incubated for an additional 24 hours. The plates were then read in a BMG Polarstar plate reader at wavelength (573-605) and the data plotted as OD versus increasing dilutions (i.e. decreasing total amounts) of rifabutin derivative concentration.

[1] = test system: multi-drug-resistant breast cancer cell line MDA-MB-231; experiment: Cell growth assay on MDA-MB-231 cells; format: cell-based; conditions: for Magnitude of potentiation in combination with doxorubicin: MDA-MB-231, breast carcinoma; for IC50: Homo sapiens
Description: as §1
(§2) In these experiments, the following cell lines were used: CHOP-resistant NHL cell line G3, CHOP-sensitive NHL cell line CRL2631, the multi-drug resistant sarcoma cell line MES-SA-Dx5; multi-drug-resistant breast cancer cell line MDA-MB-231, multi-drug resistant ovarian carcinoma cell line SK-OV3, multi-drug resistant ovarian cancer cell line NCI/ADR-RES, drug-sensitive ovarian cancer cell line OVCAR-5, and multi-drug resistant ovarian cancer cell line OVCAR-3.
(§3) Additional cell lines used include: ovarian cancer OVCAR-8, T lymphoblastoid leukemia MOLT-4, dexamethasone-resistant multiple myeloma MM.1R, myeloid leukemia cells HL-60, osteosarcoma cells U-2 OS, and myeloma RPMI 8226.

[2] = test system: multi-drug resistant ovarian carcinoma cell line SK-OV3; experiment: Cell growth assay on SK-OV3 cells; format: cell-based, human; conditions: SK-OV3, ovarian carcinoma
Description: as §1
as §2, with “OVCAR-3. […]” for “OVCAR-3.”

[3] = test system: multi-drug resistant ovarian cancer cell line OVCAR-3; experiment: Cell growth assay on OVCAR-3 cells; format: cell-based; conditions: OVCAR-3, ovarian carcinoma
Description: as §1
as §2, with “OVCAR-3. […]” for “OVCAR-3.”

ROS in G3 lymphoma cells = experiment: Intracellular ROS (CellROX, flow cytometry) in G3 cells; format: cell-based, human; conditions: 10 uM, FIG. 40
Description: Cells were then stained with the fluorescent ROS indicator, CellROX, and subjected to flow cytometry to quantitate total intracellular ROS.
The electron transport chain (ETC) is known to be a primary generator of ROS in the cell. Most of the ROS is generated by Complexes I and III of the ETC Inhibition of Complex I results in electrons piling up and leaking to react with oxygen to produce ROS.
All samples were analyzed at the same time in flow cytometry.

[4] = test system: multi-drug resistant ovarian cancer cell line NCI/ADR-RES; experiment: Cell growth assay on NCI/ADR-RES cells; format: cell-based; conditions: NCI/ADR-RES, ovarian carcinoma
Description: as §1, §2, §3

[5] = analog alone, lymphoma cell line G3, read-out: IC50
[6] = with 1 μM doxorubicin, lymphoma cell line G3, read-out: IC50 (μM) with doxorubicin (1 μM)

Row | Compound | IC50 (lymphoma cell line G3; [5]) | Fold increase in potency over DOX alone (lymphoma cell line G3; lymphoma cell line G3) | IC50 (lymphoma cell line G3; [6]) | Magnitude of potentiation in combination with doxorubicin [2] | Magnitude of potentiation in combination with doxorubicin [3] | also measured
1 | 4-deoxy-3,4[2-spiro-[1-(n-propyloxycarbonyl)-piperidin-4-yl]]- (1H)-imidazo-(2,5-dihydro)rifamycin S [RTI-78] | 58 µM | 29.5 fold | 0.08 µM | – | – | –
2 | 11-deoxy-11-imino-4-deoxy-3,4[2-spiro-[1- (ethylaminocarbonyl)-piperidin-4-yl]]-(1H)-imidazo-(2,5- dihydro)rifamycin S [RTI-82] | > 64 µM | 0.7 fold | 3.5 µM | – | – | Magnitude of potentiation in combination with doxorubicin [1]: +++ (potentiation greater than 5 fold increase)
3 | 11-deoxy-11-imino-4-deoxy-3,4[2-spiro-[1-(2-methoxyethyl)- piperidin-4-yl]]-(1H)-imidazo-(2,5-dihydro)rifamycin S [RTI-51] | > 64 µM | 0.7 fold | 3.3 µM | + (potentiation between 1.2 to 2.0 fold increase) | + (potentiation between 1.2 to 2.0 fold increase) | –
4 | O=c1[nH]c2ccccc2n1C1CCN(Cc2ccc(-c3nc4cc5[nH]cnc5cc4nc3-c3ccccc3)cc2)CC1 [Akt Inhibitor VIII] | – | – | – | – | – | CHOP resistance (lymphoma cell line G3; G3 cells, varying amounts of Akt Inhibitor VIII): dose-dependent reversal of CHOP resistance
5 | CC(=O)OCOC(=O)CN(CC(=O)OCOC(C)=O)c1ccccc1OCCOc1ccccc1N(CC(=O)OCOC(C)=O)CC(=O)OCOC(C)=O [BAPTA-AM] | – | – | – | – | – | ROS levels (ROS in G3 lymphoma cells): induced ROS
6 | Nc1ccn([C@@H]2O[C@H](CO)[C@@H](O)C2(F)F)c(=O)n1 [Gemcitabine, gemcitabine] | – | – | – | – | – | IC50 ([1]; therapeutic drug alone, MDA-MB-231, read-out: IC50): > 32 µM; IC50 ([1]; therapeutic drug with Rifabutin, MDA-MB-231, read-out: IC50 (μM) with Rifabutin): 4.83 µM; Fold increase in potency ([1]; with vs without Rifabutin, MDA-MB-231): >6.6 fold
7 | COC1C=COC2(C)Oc3c(C)c(O)c4c(c3C2=N)C2=NC3(CCN(CCN5CCOCC5)CC3)NC2=C(NC(=O)C(C)=CC=CC(C)C(O)C(C)C(O)C(C)C(OC(C)=O)C1C)C4=O (stereo not shown) [RTI-53, 11-deoxy-11-imino-4-deoxy-3,4[2-spiro-[1-(2-morpholinoethyl)-piperidin-4-yl]]-(1H)-imidazo-(2,5-dihydro)rifamycin S] | > 64 µM | 0.2 fold | 11.8 µM | + (potentiation between 1.2 to 2.0 fold increase) | + (potentiation between 1.2 to 2.0 fold increase) | –
8 | COC1C=COC2(C)Oc3c(C)c(O)c4c(c3C2=O)C2=NC3(CCN(C(=O)NCC(C)C)CC3)NC2=C(NC(=O)C(C)=CC=CC(C)C(O)C(C)C(O)C(C)C(OC(C)=O)C1C)C4=O (stereo not shown) [RTI-102, 4-deoxy-3,4[2-spiro-[1-(isobutylaminocarbonyl)-piperidin-4-yl]]-(1H)-imidazo-(2,5-dihydro)rifamycin S] | > 64 µM | 2.5 fold | 0.95 µM | +++ (potentiation greater than 5 fold increase) | – | Magnitude of potentiation in combination with doxorubicin (lymphoma cell line G3): ++ (potentiation between 2.1 to 5 fold increase)
9 | COC1C=COC2(C)Oc3c(C)c(O)c4c(c3C2O)C2=NC3(CCN(CC(C)C)CC3)NC2=C(NC(=O)C(C)=CC=CC(C)C(O)C(C)C(O)C(C)C(OC(C)=O)C1C)C4=O (stereo not shown) [RTI-174, 11-deoxy-11-hydroxy-4-deoxy-3,4[2-spiro-[1-(2-methylpropyl)-piperidin-4-yl]]-(1H)-imidazo-(2,5-dihydro)rifamycin S] | 51 µM | 3.7 fold | 0.64 µM | + (potentiation between 1.2 to 2.0 fold increase) | + (potentiation between 1.2 to 2.0 fold increase) | Magnitude of potentiation in combination with doxorubicin (lymphoma cell line G3): ++ (potentiation between 2.1 to 5 fold increase); Magnitude of potentiation in combination with doxorubicin [4]: + (potentiation between 1.2 to 2.0 fold increase)
10 | COC1C=COC2(C)Oc3c(C)c(O)c4c(c3C2N)C2=NC3(CCN(CC(C)C)CC3)NC2=C(NC(=O)C(C)=CC=CC(C)C(O)C(C)C(O)C(C)C(OC(C)=O)C1C)C4=O (stereo not shown) [RTI-181, 11-deoxy-11-amino-4-deoxy-3,4[2-spiro-[1-(2-methylpropyl)-piperidin-4-yl]]-(1H)-imidazo-(2,5-dihydro)rifamycin S] | 52 µM | 5.5 fold | 0.43 µM | +++ (potentiation greater than 5 fold increase) | + (potentiation between 1.2 to 2.0 fold increase) | Magnitude of potentiation in combination with doxorubicin (lymphoma cell line G3): +++ (potentiation greater than 5 fold increase)
11 | COC1C=COC2(C)Oc3c(C)c(O)c4c(c3C2=N)C2=NC3(CCN(C(=O)NCC(C)C)CC3)NC2=C(NC(=O)C(C)=CC=CC(C)C(O)C(C)C(O)C(C)C(OC(C)=O)C1C)C4=O (stereo not shown) [RTI-182, 11-deoxy-11-imino-4-deoxy-3,4[2-spiro-[1-(isobutylaminocarbonyl)-piperidin-4-yl]]-(1H)-imidazo-(2,5-dihydro)rifamycin S] | 62 µM | 2.0 fold | 1.2 µM | ++ (potentiation between 2.1 to 5 fold increase) | + (potentiation between 1.2 to 2.0 fold increase) | Magnitude of potentiation in combination with doxorubicin (lymphoma cell line G3): + (potentiation between 1.2 to 2.0 fold increase); Magnitude of potentiation in combination with doxorubicin [1]: ++ (potentiation between 2.1 to 5 fold increase)
12 | COC1C=COC2(C)Oc3c(C)c(O)c4c(c3C2N)C2=NC3(CCN(C(=O)NCC(C)C)CC3)NC2=C(NC(=O)C(C)=CC=CC(C)C(O)C(C)C(O)C(C)C(OC(C)=O)C1C)C4=O (stereo not shown) [RTI-183, 11-deoxy-11-amino-4-deoxy-3,4[2-spiro-[1-(isobutylaminocarbonyl)-piperidin-4-yl]]-(1H)-imidazo-(2,5-dihydro)rifamycin S] | > 64 µM | 0.5 fold | 5.19 µM | – | + (potentiation between 1.2 to 2.0 fold increase) | –
13 | C=C(C)[C@H]1Cc2c(ccc3c2O[C@@H]2COc4cc(OC)c(OC)cc4[C@@H]2C3=O)O1 [Rotenone, rotenone] | – | – | – | – | – | ROS levels (ROS in G3 lymphoma cells): induced ROS
14 | CC[C@]1(O)C[C@@H]2CN(CCc3c([nH]c4ccccc34)[C@@](C(=O)OC)(c3cc4c(cc3OC)N(C)[C@H]3[C@@](O)(C(=O)OC)[C@H](OC(C)=O)[C@]5(CC)C=CCN6CC[C@]43[C@@H]65)C2)C1 [Vinblastine, vinblastine] | – | – | – | – | – | IC50 (lymphoma cell line G3; Homo sapiens, therapeutic drug alone, G3, read-out: IC50): 8 µM; IC50 (lymphoma cell line G3; Homo sapiens, therapeutic drug with Rifabutin, G3, read-out: IC50 (μM) with Rifabutin): 1 µM; Fold increase in potency (lymphoma cell line G3; with vs without Rifabutin, G3): 8.0 fold
